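Grown in 96-well plates, cells were treated for 48 hours with each compound at five concentrations. Insufficient inhibition: endpoint recorded as highest concentration tested. At the GI50, growth is halved. The concentration for full growth arrest is given as TGI.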

Among the test systems are MDA-N; SF-539 CNS; MDA-MB-435; DU-145 prostate; BT-549 breast; PC-3 prostate; MDA-MB-231 breast; MCF7 breast; CCRF-CEM leukemia; T-47D breast; XF 498 CNS; SN12K1 renal; SNB-78 CNS; DMS 114 small cell lung; DMS 273 small cell lung; RXF-631 renal; LXFL 529 NSCLC.
Holding throughout (assay): NCI-60 cell line screen, 48 h

Consider `COc1cc(-c2c(C#N)c(N)c(C#N)c3c2COc2ccccc2-3)cc(OC)c1OC`, for which the TGI with MDA-N is above 100 µM; in the assay on SF-539 CNS, 19.9 µM; in the assay on MDA-MB-435, above 100 µM; with DU-145 prostate it was above 100 µM; with BT-549 breast, above 75.4 µM; with PC-3 prostate, above 100 µM. Further, the TGI is 40.2 µM in the assay with MDA-MB-231 breast, above 100 µM in the assay on MCF7 breast, above 100 µM in the assay on CCRF-CEM leukemia and above 100 µM with T-47D breast.
For `c1ccc(C(c2ccccc2)[P+](c2ccccc2)(c2ccccc2)c2ccccc2)cc1`, the TGI was found to be 0.737 µM with XF 498 CNS; 6.31 µM with SF-539 CNS; 12.3 µM with SN12K1 renal; 12.9 µM in the assay with SNB-78 CNS; 2.73 µM in the assay with DMS 114 small cell lung; 2.17 µM with DMS 273 small cell lung. For the same molecule, the TGI in the assay on MCF7 breast was determined as 11.9 µM; in the assay with CCRF-CEM leukemia, 14.6 µM.
For the molecule `CCCCCCCCCCCCCCCC[N+](C)(C)CCN(Cc1ccc(OC)cc1)c1ncccn1`, the GI50 was 2.43 µM in the assay with BT-549 breast, 2 µM with MDA-MB-231 breast and 1.28 µM in the assay with T-47D breast. Also, the TGI in the assay with BT-549 breast stood at 5.83 µM; in the assay on MDA-MB-231 breast, 4.94 µM; with T-47D breast it was 2.98 µM.
For `C=CCOC1OC(CS(=O)(=O)O)C(O)C(O)C1O` (configuration not stated), the TGI with MDA-N, in the assay on MDA-MB-435, with DU-145 prostate, in the assay with BT-549 breast, in the assay with PC-3 prostate and in the assay with MDA-MB-231 breast was above 100 µM throughout. The TGI in the assay with MCF7 breast and with T-47D breast was above 100 µM each time.
Turning to `CS/C(=N\C(=S)Nc1ccccc1)Nc1ccccc1`, the TGI in the assay with SNB-78 CNS is above 100 µM; in the assay with DMS 114 small cell lung it was 52.6 µM.
Turning to `O=C(c1ccccc1)[C@H]1Nc2ccc(Cl)cc2[C@H]2OCCC[C@@H]12`, the TGI in the assay with XF 498 CNS came out at 33.6 µM; in the assay with SNB-78 CNS, 72.1 µM; in the assay with DMS 114 small cell lung, 37.1 µM; in the assay on DMS 273 small cell lung, 39 µM; in the assay on RXF-631 renal it was 34.5 µM; with LXFL 529 NSCLC it was 33.5 µM.
As to `FC(F)(F)C(C1=NC(C(F)(F)F)(C(F)(F)F)N=C(N2CCOCC2)O1)C(F)(F)F`, the TGI in the assay on MDA-N was 53.8 µM; in the assay on SF-539 CNS it was 97.3 µM; with MDA-MB-435, 59.3 µM; with DU-145 prostate it was above 100 µM; in the assay on BT-549 breast, 56 µM; in the assay with PC-3 prostate, 63.2 µM. For the same molecule, the TGI with MDA-MB-231 breast worked out at 36.1 µM; in the assay on CCRF-CEM leukemia, 25.3 µM; with T-47D breast it was 89.4 µM.
With `COc1ccc(C2C(=O)C(Cl)N2Nc2nc(C)cc(=O)[nH]2)cc1OC` (configuration not stated), the TGI in the assay on SF-539 CNS was 85.5 µM; in the assay with SNB-78 CNS it was above 100 µM; with DMS 273 small cell lung, 84.3 µM; in the assay on CCRF-CEM leukemia it was 55.1 µM; in the assay with LXFL 529 NSCLC, above 100 µM.
On to `Nc1ccc(C2NC(=O)Cc3c2ccc2ccccc32)cc1` (configuration not stated), for which the TGI with MDA-N, in the assay on SF-539 CNS, in the assay on MDA-MB-435, in the assay with DU-145 prostate, in the assay with PC-3 prostate and with MCF7 breast was above 100 µM each time. Also, the TGI in the assay on CCRF-CEM leukemia and in the assay with T-47D breast was above 100 µM in each case.

The values above are taken from PubChem BioAssay (NCI).
